{"source": "patent US20060063707A1", "about": "“Compositions for enhancing memory and methods therefor” (Lifelike Biomatic, Inc., priority 2004, published 2006)", "key": {"[1]": {"tested_on": "AMPA-induced currents in cerebellar Purkinje cells as well as in hippocampal pyramidal neurons", "test": "Increase of AMPA-induced currents in neurons (Gates et al.)", "type": "cell-based", "text": "The ampakine functionality of LB-253-4c is a biarylpropylsulfonamide (Ornstein et al., ibid). […] The new fusion molecule, LB-253-4c, therefore, likely has a different mode of action compared to that of cyclothiazide, a mode of action more directed towards deactivation instead of desensitization."}, "GluR4 flip [2]": {"target": "T1, GluR4 flip (Homo sapiens, UniProt P48058)", "T1 construct": "expressed in transfected cells; host or cells: HEK cells", "T1 sequence (P48058 21-902)": "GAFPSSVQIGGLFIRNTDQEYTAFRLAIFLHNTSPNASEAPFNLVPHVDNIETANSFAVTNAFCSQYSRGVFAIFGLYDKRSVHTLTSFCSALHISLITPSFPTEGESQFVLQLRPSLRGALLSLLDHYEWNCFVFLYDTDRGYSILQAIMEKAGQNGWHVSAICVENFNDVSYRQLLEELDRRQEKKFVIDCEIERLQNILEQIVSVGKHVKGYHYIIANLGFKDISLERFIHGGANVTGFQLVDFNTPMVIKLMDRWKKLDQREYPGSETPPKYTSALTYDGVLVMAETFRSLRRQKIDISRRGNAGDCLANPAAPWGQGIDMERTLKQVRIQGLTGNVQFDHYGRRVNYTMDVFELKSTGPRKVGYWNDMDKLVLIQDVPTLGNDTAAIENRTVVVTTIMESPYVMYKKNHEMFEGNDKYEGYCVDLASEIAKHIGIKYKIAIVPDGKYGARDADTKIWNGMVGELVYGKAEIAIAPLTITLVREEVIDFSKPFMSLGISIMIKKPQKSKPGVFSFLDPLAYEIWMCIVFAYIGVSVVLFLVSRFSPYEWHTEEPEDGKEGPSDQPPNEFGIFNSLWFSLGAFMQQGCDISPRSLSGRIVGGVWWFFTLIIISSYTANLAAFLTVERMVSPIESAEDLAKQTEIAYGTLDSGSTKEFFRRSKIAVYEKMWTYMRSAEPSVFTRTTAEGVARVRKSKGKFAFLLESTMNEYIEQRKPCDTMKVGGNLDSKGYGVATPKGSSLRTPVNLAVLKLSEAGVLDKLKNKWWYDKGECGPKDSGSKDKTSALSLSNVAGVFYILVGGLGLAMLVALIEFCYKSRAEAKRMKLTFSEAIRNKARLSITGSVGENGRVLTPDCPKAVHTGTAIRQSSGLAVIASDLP", "details": "HEK cells expressing GluR4 flip; read-out: potentiation of the L-glutamate mediated currents; cited from earlier work"}, "[3]": {"tested_on": "scopolamine-induced learning and memory deficits", "test": "Morris water maze, scopolamine-induced learning deficits (escape latency)", "type": "in vivo, Male Wistar rats", "description": "Learning and memory performance: Learning and memory performances were tested in the conventional Morris water maze according to the following procedure. The Morris maze includes a circular water tank (150 cm in diameter) filled with water and maintained at 27° C. with an escape platform (15 cm in diameter) 18 cm from the perimeter always in the same position 2 cm beneath the surface of the water. The water is made opaque by addition of milk powder rendering the platform invisible.\nMale Wistar rats (200-230 g body weight, maintained in standard laboratory conditions) were given a single training session on one day. A training session consists of 4 consecutive trials (T1-T4) in the Morris water maze separated by 60 seconds. For each trial the animal is placed in the maze at one of two starting points equidistant from the escape platform and allowed to find the escape platform. The animal is left on the escape platform for 60 seconds before starting a new trial. […] During the 4 trials the animals start the maze twice from each starting point in a randomly determined order per animal. The time the animal takes to find the escape platform is referred to as the “escape latency.”\nMeasure of escape latency in control and test animals: The ampakine, the nemdakine, and the combination of ampakine and nemdakine of the present invention were administered p.o. to test animals 60 minutes before a test session in the maze (t=−60 min). Scopolamine was administered i.p. to induce learning and memory deficits 30 minutes later, i.e., 30 minutes before the test session in the maze (t=−30 min). Scopolamine induces amnesia as shown by the failure of scopolamine-treated animals to reduce their escape latencies from trial to trial. […]\nThe principal measure taken at each trial was the escape latency. Measures consisted in the time the animals took to find the platform and were analyzed by ANOVA with repeated measures. […]"}, "LTP": {"tested_on": "LTP", "details": "agent alone; cited from earlier work"}, "[4]": {"tested_on": "adult mice hippocampal slices", "test": "LTP induction in hippocampal slices (EPSP slopes in CA1 after theta-burst stimulation)", "type": "cell-based", "description": "Adult mice hippocampal slices were prepared according to standard procedures as described in Dunwiddie and Lynch (J. Physiol. 276:353-367. 1978). Briefly, mice were decapitated following anesthesia, the brains rapidly removed and the hippocampus dissected. Transverse hippocampal slices (400 μm thick) were cut with a McIllwain tissue slicer (Stoelting Co., Wood Dale, Ill.). Slices were pre-incubated for at least 60 min in an artificial cerebrospinal fluid (aCSF) containing (in mM) NaCl (124), KCl (3), KH2PO4 (1.25), MgSO4 (2.5), CaCl2 (3.4), NaHCO3 (26), glucose (10); and L-ascorbate (2) before being placed in a recording chamber. Slices were continuously perfused with aCSF containing no added drug, 20 μM CX546, 2 μM D, L-serine, or a combination of 20 μM CX546 and 2 μM D, L-serine. A stimulating electrode was placed in the stratum radiatum at the junction of CA3 and CA1 and a recording electrode was placed in the stratum radiatum of CA1. Baseline recording with a stimulation frequency of 0.033 Hz was done for at least 10 min. After obtaining a stable baseline for 10 min, LTP was elicited in CA1 stratum radiatum by stimulation of the Schaffer collateral pathways by using high frequency stimulation of 5 bursts of 3 pulses at 100 Hz, with the bursts delivered at the theta frequency, i.e., 5 Hz. Low frequency stimulation was resumed and responses recorded for at least 30 min.\nSlopes of the extracellular postsynaptic potentials (EPSPs) were calculated and expressed as percent of the average values recorded during the 10 min baseline period. Results were averaged and expressed as means±s.e.m.\nIn particular, slices were prepared as cited above and EPSPs were evoked in CA1 stratum radiatum by stimulation of the Schaffer collateral pathways once every 30 seconds. At t=0, high frequency stimulation (5 bursts of 3 pulses at 100 Hz with bursts delivered at 5 Hz) was delivered, and low frequency stimulation resumed. Slopes of EPSPs were calculated and expressed as percent over the average values during the 10 minute baseline. […] The data of FIG. 3 therefore represent the means±s.e.m., of 8 slices for control conditions (●), and 6 slices for the combination of 250 μM piracetam and 2 μM D, L-serine (▪). Results were statistically significant with ANOVA with repeated measures.\nSlices were incubated in control medium. LB-302 (100 μM) was added to the medium at t=20 min and LTP was induced as in Example 1 by using high frequency stimulation of 5 bursts of 3 pulses at 100 Hz, with the bursts delivered at the theta frequency, i.e., 5 Hz delivered at t=47 min."}, "GluR4 flip [5]": {"target": "T1, GluR4 flip", "test": "Potentiation of L-glutamate mediated currents on HEK cells expressing GluR4 flip (Ornstein et al.)", "type": "cell-based", "description": "From a study of the structure-activity relationship of the compounds of Ornstein (Ornstein, et al., 2000, ibid), a derivative of LY404187 designated 22h was chosen to provide the ampakine functionality of the new fusion molecule. The structural difference between LY404187 and the 22h derivative is that 22h has an amino substituent on the distal aromatic ring of the biphenyl group instead of a cyano substituent."}}, "note": "“Also recorded” adds a separate entry of the source.", "data": [{"smiles": "CC(CNS(=O)(=O)C(C)C)c1ccc(-c2ccc(C#N)cc2)cc1", "note": "(centres unmarked) [LY404187, N-2-(4-(cyanophenyl)phenyl)propyl-2-propanesulfonamide]", "values": [{"measurement": "potency relative to CX546", "setting": "[1]", "value": "about 1000 times"}, {"measurement": "EC50", "setting": "GluR4 flip [2]", "value": 0.29, "unit": "µM"}]}, {"smiles": "N[C@H](CO)C(=O)O", "note": "[D-serine]", "values": [{"measurement": "reversal of scopolamine-induced impairment", "setting": "[3]; 1000 mg/kg p.o. at t=−60 min, then scopolamine 0.5 mg/kg i.p.", "value": "statistically significant reversal of scopolamine-induced impairment"}, {"measurement": "concentration known to facilitate LTP", "setting": "LTP", "value": 10, "unit": "µM"}]}, {"smiles": "CN1[C@@H]2C[C@@H](OC(=O)[C@H](CO)c3ccccc3)C[C@H]1[C@@H]1O[C@@H]12", "note": "[scopolamine]", "values": [{"measurement": "performance (escape latency) across the 4 trials", "setting": "[3]; scopolamine alone 0.5 mg/kg i.p. at t=−30 min", "value": "failed to improve their performance across the 4 trials"}]}, {"smiles": "NC(CO)(CC1=CCN(Cc2ccccc2)CC1)C(=O)O", "note": "(centres unmarked) [LB-302, 2-amino-3-(1-benzyl-1,2,3,6-tetrahydro-pyridin-4-yl)-2-hydroxymethyl-propionic acid]", "values": [{"measurement": "LTP amplitude", "setting": "[4]; LB-302 100 μM", "value": "dramatic increase in LTP amplitude"}, {"measurement": "baseline response", "setting": "[4]; LB-302 100 μM", "value": "small increase in baseline response"}]}, {"smiles": "NC(=O)CN1CCCC1=O", "note": "[piracetam]", "values": [{"measurement": "reversal of scopolamine-induced learning impairment", "setting": "[3]; 500 mg/kg p.o. at t=−60 min, then scopolamine 0.5 mg/kg i.p.", "value": "trend towards a reversal of scopolamine-induced learning impairment, although this effect did not reach statistical significance"}, {"measurement": "effect on the responses (EPSP slope)", "setting": "[4]; piracetam 250 μM alone", "value": "did not produce any significant effect"}]}, {"smiles": "CC(CNS(=O)(=O)C(C)C)c1ccc(-c2ccc(N)cc2)cc1", "note": "(centres unmarked) [22h]", "values": [{"measurement": "activity relative to LY404187", "setting": "GluR4 flip [5]", "value": "about 2 fold"}]}, {"smiles": "NC(CO)C(=O)O", "note": "(racemic) [D, L-serine]", "values": [{"measurement": "levels of potentiation / responses (EPSP slope) as compared to control slices", "setting": "[4]; 2 μM D, L-serine alone", "value": "did not modify the levels of potentiation; also recorded: did not produce any significant effect"}]}]}
